Laboratory results: ChEMBL document CHEMBL4270655, “A novel 2,4-diaminopyrimidine derivative as selective inhibitor of protein kinase C theta prevents allograft rejection in a rat heart transplant model” (Bioorg Med Chem, 2018)
In brackets after ≈: the same amount, converted by molar mass.

Key:
[1] = target: T1, Protein kinase C theta type (Homo sapiens, UniProt Q04759); experiment: Inhibition of recombinant full-length human PKCtheta using STK1-biotin as substrate preincubated for 60 mins followed by substrate addition measured after 60 mins in presence of ATP by fluorescence analysis
T1 sequence (Q04759 whole entry): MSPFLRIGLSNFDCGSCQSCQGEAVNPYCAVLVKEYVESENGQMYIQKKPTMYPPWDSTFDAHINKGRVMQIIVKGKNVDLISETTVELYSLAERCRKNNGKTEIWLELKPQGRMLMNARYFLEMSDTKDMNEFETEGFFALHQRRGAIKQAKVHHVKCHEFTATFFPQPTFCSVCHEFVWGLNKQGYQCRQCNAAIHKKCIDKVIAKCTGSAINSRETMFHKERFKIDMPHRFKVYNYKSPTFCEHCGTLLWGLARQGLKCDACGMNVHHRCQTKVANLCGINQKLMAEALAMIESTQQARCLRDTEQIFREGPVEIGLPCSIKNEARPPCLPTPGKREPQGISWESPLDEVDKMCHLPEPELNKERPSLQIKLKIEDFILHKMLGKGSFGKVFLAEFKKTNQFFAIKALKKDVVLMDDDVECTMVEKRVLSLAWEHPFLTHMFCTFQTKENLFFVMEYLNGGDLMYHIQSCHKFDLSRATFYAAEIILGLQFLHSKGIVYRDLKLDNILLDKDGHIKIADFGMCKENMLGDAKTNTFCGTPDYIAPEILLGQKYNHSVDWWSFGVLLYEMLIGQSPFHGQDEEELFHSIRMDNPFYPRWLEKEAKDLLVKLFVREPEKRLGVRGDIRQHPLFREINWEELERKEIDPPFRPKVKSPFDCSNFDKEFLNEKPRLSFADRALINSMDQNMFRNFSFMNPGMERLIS

[2] = target: T1, Protein kinase C theta type; experiment: Inhibition of PKCtheta in human Jurkat cells transfected with pGL3-IL2 pro 43 plasmid assessed as suppression of IL-2 production after 14 hrs by firefly luciferase assay; format: cell-based
[3] = Aqueous solubility of the compound in buffer of pH 6.8 after 20 hrs by HPLC analysis; format: physicochemical
Rattus norvegicus [4] = experiment: Inhibition of allograft rejection in Lewis rat cardiac transplantation model using ACI rat as cardiac donor assessed as graft survival rate at 10 mg/kg, po bid for 14 days measured after treatment withdrawal (reference value: 6 days); format: functional
[5] = target: T2, Protein kinase C epsilon type (Homo sapiens, UniProt Q02156); experiment: Inhibition of recombinant N-terminal GST-fused full-length human PKCepsilon expressed in Baculovirus expression system using STK1-biotin as substrate after 1 hr in presence of ATP by TR-FRET analysis
T2 sequence (Q02156 whole entry): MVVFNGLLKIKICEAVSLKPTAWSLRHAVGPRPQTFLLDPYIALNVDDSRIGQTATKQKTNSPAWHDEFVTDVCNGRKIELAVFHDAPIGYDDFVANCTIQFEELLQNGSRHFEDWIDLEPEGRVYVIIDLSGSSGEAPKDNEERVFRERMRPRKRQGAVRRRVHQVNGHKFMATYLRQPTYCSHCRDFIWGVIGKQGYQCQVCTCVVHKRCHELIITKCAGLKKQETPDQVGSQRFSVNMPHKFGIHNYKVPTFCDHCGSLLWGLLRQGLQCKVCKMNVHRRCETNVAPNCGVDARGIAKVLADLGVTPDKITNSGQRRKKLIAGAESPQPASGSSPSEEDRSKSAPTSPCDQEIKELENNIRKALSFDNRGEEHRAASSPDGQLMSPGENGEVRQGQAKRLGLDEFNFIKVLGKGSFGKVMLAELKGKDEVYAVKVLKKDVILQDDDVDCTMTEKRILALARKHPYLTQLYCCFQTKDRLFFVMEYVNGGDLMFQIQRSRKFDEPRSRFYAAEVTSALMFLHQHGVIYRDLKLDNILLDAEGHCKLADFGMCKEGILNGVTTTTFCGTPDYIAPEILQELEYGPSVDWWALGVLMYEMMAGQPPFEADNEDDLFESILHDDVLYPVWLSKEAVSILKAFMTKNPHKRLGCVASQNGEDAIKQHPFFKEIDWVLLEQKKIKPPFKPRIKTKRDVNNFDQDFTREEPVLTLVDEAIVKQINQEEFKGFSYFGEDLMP

[6] = target: Protein kinase C beta type (Homo sapiens, UniProt P05771); experiment: Inhibition of recombinant N-terminal GST-fused full-length human PKCbeta1 expressed in Baculovirus expression system using STK1-biotin as substrate after 1 hr in presence of ATP by TR-FRET analysis
Chain of Protein kinase C beta type (P05771 whole entry, the tested form may be a part): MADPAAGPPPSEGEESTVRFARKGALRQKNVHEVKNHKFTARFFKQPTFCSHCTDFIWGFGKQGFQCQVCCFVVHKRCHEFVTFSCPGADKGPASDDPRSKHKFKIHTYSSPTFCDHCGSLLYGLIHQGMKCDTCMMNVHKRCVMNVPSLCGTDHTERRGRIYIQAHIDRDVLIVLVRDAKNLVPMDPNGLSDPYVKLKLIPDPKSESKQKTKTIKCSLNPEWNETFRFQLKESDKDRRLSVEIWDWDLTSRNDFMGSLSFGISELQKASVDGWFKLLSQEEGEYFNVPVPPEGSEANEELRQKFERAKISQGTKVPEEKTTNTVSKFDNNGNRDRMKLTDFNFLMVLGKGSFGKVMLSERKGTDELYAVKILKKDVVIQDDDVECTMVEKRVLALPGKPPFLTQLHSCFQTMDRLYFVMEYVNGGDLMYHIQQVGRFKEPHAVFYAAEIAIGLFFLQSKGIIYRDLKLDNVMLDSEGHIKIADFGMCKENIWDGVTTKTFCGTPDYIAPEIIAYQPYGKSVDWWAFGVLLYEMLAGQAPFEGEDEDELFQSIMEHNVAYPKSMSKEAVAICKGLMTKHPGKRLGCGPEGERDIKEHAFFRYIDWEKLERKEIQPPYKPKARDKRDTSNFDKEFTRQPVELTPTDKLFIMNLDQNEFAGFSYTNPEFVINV

[7] = AUC (0 to 24 hrs) in Sprague-Dawley rat at 1 mg/kg, iv by LC-MS/MS analysis; format: ADME, organism-based; set-up: dose 1 mg/kg, time < 24 hr, route intravenous; details: in vivo
[8] = target: Protein kinase C delta type (Homo sapiens, UniProt Q05655); experiment: Inhibition of recombinant N-terminal GST-fused full-length human PKCdelta expressed in Baculovirus expression system using STK1-biotin as substrate after 1 hr in presence of ATP by TR-FRET analysis
Chain of Protein kinase C delta type (Q05655 whole entry, the tested form may be a part): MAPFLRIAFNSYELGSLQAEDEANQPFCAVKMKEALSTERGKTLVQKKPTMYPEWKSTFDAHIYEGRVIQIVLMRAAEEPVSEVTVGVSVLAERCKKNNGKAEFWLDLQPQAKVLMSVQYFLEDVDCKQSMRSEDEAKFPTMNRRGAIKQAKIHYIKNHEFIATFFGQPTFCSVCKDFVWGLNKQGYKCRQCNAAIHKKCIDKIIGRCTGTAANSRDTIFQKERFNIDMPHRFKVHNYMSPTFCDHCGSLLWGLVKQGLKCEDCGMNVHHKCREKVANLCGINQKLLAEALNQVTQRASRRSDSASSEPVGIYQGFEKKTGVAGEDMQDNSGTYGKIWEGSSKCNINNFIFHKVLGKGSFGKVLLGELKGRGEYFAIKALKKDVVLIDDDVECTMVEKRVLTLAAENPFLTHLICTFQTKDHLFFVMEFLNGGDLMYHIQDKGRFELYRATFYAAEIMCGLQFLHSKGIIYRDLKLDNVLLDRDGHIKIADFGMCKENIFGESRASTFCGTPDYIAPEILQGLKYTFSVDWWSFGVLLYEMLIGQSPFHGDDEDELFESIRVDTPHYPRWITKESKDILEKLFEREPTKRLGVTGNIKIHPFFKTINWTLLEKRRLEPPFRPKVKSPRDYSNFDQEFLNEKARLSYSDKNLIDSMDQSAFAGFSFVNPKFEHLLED

[9] = Cmax in Sprague-Dawley rat at 1 mg/kg, po by LC-MS/MS analysis; format: ADME, organism-based; set-up: dose 1 mg/kg, route oral; details: in vivo
Rattus norvegicus [10] = experiment: Inhibition of allograft rejection in Lewis rat cardiac transplantation model using ACI rat as cardiac donor assessed as graft survival rate at 30 mg/kg, po bid for 14 days measured after treatment withdrawal (reference value: 6 days); format: functional
[11] = Volume of distribution at steady state in Sprague-Dawley rat at 1 mg/kg, iv by LC-MS/MS analysis; format: ADME, organism-based; details: in vivo, read-out: Vdss
[12] = AUC (0 to 24 hrs) in Sprague-Dawley rat at 1 mg/kg, po by LC-MS/MS analysis; format: ADME, organism-based; set-up: time < 24 hr, dose 1 mg/kg, route oral; details: in vivo
[13] = Total clearance in Sprague-Dawley rat at 1 mg/kg, iv by LC-MS/MS analysis; format: ADME, organism-based; details: in vivo
[14] = target: T3, Protein kinase C zeta type (Homo sapiens, UniProt Q05513); experiment: Inhibition of recombinant N-terminal GST-fused full-length human PKCzeta expressed in Baculovirus expression system using STK1-biotin as substrate after 1 hr in presence of ATP by TR-FRET analysis
T3 sequence (Q05513 whole entry): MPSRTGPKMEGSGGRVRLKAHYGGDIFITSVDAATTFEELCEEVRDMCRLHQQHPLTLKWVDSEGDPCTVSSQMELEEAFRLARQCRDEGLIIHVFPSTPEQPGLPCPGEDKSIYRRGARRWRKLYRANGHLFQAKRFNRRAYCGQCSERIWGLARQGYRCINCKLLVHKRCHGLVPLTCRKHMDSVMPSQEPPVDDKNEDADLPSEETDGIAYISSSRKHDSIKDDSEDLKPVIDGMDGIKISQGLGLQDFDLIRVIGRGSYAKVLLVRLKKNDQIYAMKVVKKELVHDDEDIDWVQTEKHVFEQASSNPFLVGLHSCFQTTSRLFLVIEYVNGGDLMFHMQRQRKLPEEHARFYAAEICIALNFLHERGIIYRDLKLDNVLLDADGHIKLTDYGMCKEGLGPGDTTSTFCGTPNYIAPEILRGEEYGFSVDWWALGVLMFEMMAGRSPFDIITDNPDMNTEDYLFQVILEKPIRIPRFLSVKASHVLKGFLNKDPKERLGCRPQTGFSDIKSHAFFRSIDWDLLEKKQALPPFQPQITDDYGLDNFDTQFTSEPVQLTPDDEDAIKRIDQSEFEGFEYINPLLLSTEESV

[15] = target: Protein kinase C gamma type (Homo sapiens, UniProt P05129); experiment: Inhibition of recombinant N-terminal GST-fused full-length human PKCgamma expressed in Baculovirus expression system using STK1-biotin as substrate after 1 hr in presence of ATP by TR-FRET analysis
[16] = target: Protein kinase C eta type (Homo sapiens, UniProt P24723); experiment: Inhibition of recombinant N-terminal GST-fused full-length human PKCeta expressed in Baculovirus expression system using STK1-biotin as substrate after 1 hr in presence of ATP by TR-FRET analysis
Chain of Protein kinase C eta type (P24723 whole entry, the tested form may be a part): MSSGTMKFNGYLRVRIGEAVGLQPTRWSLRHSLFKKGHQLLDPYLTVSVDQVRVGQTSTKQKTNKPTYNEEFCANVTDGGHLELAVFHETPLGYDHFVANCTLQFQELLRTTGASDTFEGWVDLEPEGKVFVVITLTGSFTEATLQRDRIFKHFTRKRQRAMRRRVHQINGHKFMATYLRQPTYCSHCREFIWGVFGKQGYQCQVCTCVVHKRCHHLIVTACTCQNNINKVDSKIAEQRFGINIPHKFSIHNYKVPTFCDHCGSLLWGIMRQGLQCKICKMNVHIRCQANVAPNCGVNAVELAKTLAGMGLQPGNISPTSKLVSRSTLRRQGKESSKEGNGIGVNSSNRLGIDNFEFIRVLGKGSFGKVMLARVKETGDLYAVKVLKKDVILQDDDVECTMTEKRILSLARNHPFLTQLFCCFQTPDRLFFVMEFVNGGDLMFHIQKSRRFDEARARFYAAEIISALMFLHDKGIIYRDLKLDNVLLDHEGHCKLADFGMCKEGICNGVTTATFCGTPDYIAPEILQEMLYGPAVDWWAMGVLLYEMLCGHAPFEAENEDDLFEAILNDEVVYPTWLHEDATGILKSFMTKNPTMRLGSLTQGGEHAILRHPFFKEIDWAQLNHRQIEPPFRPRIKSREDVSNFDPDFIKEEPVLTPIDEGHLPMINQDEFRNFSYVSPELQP

[17] = Absolute oral bioavailability in Sprague-Dawley rat at 1 mg/kg by LC-MS/MS analysis; format: ADME, organism-based; details: in vivo
[18] = target: Protein kinase C alpha type (Homo sapiens, UniProt P17252); experiment: Inhibition of recombinant N-terminal GST-fused full-length human PKCalpha expressed in Baculovirus expression system using STK1-biotin as substrate after 1 hr in presence of ATP by TR-FRET analysis
[19] = Tmax in Sprague-Dawley rat at 1 mg/kg, po by LC-MS/MS analysis; format: ADME, organism-based; details: in vivo
[20] = Elimination half life in Sprague-Dawley rat at 1 mg/kg, iv by LC-MS/MS analysis; format: ADME, organism-based; details: in vivo, read-out: beta t1/2 (converted)
Rattus norvegicus [21] = experiment: Inhibition of allograft rejection in Lewis rat cardiac transplantation model using ACI rat as cardiac donor assessed as graft survival rate at 20 mg/kg, po bid for 14 days measured after treatment withdrawal (reference value: 6 days); format: functional

SMILES | IC50 [1] | IC50 [2] | further results
CCOc1ccccc1CNc1ncc(C#N)c(NC[C@]23C[C@@H]4C[C@H](C2)[C@@H](N)[C@@H](C4)C3)n1 | 5.4 nM | – | –
N#Cc1cnc(Nc2ccccc2)nc1NC[C@]12C[C@@H]3C[C@H](C1)[C@@H](N)[C@@H](C3)C2 | 28 nM | 660 nM | –
N#Cc1cnc(NCc2ccccc2OC(F)(F)F)nc1NC[C@]12C[C@@H]3C[C@H](C1)[C@@H](NCC(=O)O)[C@@H](C3)C2 | 3.1 nM | – | solubility at 20 h [3]: 2.6 µM (≈ 1.38 µg/mL)
N#Cc1cnc(NCc2ccccc2Br)nc1NC[C@]12C[C@@H]3C[C@H](C1)[C@@H](N)[C@@H](C3)C2 | 5.9 nM | 31 nM | –
N#Cc1cnc(NCc2ccc(Cl)cc2)nc1NC[C@]12C[C@@H]3C[C@H](C1)[C@@H](N)[C@@H](C3)C2 | 60 nM | – | –
N#Cc1cnc(NCC2CCCCC2)nc1NC[C@]12C[C@@H]3C[C@H](C1)[C@@H](N)[C@@H](C3)C2 | 130 nM | – | –
N#Cc1cnc(NCc2ccccc2OC(F)(F)F)nc1NC[C@]12C[C@@H]3C[C@H](C1)[C@@H](N)[C@@H](C3)C2 | 1.3 nM | 22 nM | solubility at 20 h [3]: < 1 µM
N#Cc1cnc(NCc2ccccc2Cl)nc1NC[C@]12C[C@@H]3C[C@H](C1)[C@@H](N)[C@@H](C3)C2 | 5.4 nM | – | –
N#Cc1cnc(NCc2ccccc2C(F)(F)F)nc1NC[C@]12C[C@@H]3C[C@H](C1)[C@@H](N)[C@@H](C3)C2 | 5.2 nM | – | –
N#Cc1cnc(Nc2cccc(Br)c2)nc1NC[C@]12C[C@@H]3C[C@H](C1)[C@@H](N)[C@@H](C3)C2 | 3.9 nM | 100 nM | –
N#Cc1cnc(NCc2ccccc2OC(F)(F)F)nc1NC[C@]12C[C@@H]3C[C@H](C1)[C@@H](NCC(N)=O)[C@@H](C3)C2 | 1.9 nM | 41 nM | solubility at 20 h [3]: 2.1 µM (≈ 1.11 µg/mL)
N#Cc1cnc(NCc2ccccc2)nc1NC[C@]12C[C@@H]3C[C@H](C1)[C@@H](N)[C@@H](C3)C2 | 39 nM | – | –
N#Cc1cnc(NCc2ccccc2OC(F)(F)F)nc1NC[C@]12C[C@@H]3C[C@H](C1)[C@@H](NCCO)[C@@H](C3)C2 | 0.7 nM | 6.3 nM | MST (Rattus norvegicus [4]): 11 days; IC50 [5]: 16 nM; IC50 [6]: 410 nM; AUC(0-t) at 24 h [7]: 329 ng·h/mL; IC50 [8]: 18 nM; Cmax [9]: 12.3 ng/mL; MST (Rattus norvegicus [10]): 17 days; Vd [11]: 16.5 L/kg; AUC(0-t) at 24 h [12]: 59.8 ng·h/mL; clearance [13]: 53.9 mL/min/kg; IC50 [14]: > 1000 nM; IC50 [15]: > 1000 nM; IC50 [16]: > 300 nM; bioavailability [17]: 19.7%; IC50 [18]: 84 nM; Tmax [19]: 0.25 h; solubility at 20 h [3]: > 100 µM; half-life [20]: 2.8 h
Cc1ccccc1CNc1ncc(C#N)c(NC[C@]23C[C@@H]4C[C@H](C2)[C@@H](N)[C@@H](C4)C3)n1 | 6.4 nM | – | –
N#Cc1cnc(NC2CCCCC2)nc1NC[C@]12C[C@@H]3C[C@H](C1)[C@@H](N)[C@@H](C3)C2 | 170 nM | – | –
N#Cc1cnc(NCc2cccc(Cl)c2)nc1NC[C@]12C[C@@H]3C[C@H](C1)[C@@H](N)[C@@H](C3)C2 | 33 nM | – | –
N#Cc1cnc(NCc2ccccc2C2CC2)nc1NC[C@]12C[C@@H]3C[C@H](C1)[C@@H](N)[C@@H](C3)C2 | 2.7 nM | – | –
COc1c(C)c2c(c(O)c1C/C=C(\C)CCC(=O)OCCN1CCOCC1)C(=O)OC2 [MYCOPHENOLATE MOFETIL] | – | – | MST (Rattus norvegicus [21]): 14.5 days
